pKi: −log10 of the molar value.
How the values were obtained:
[1] = tested on: rat cerebral cortex neural cells; assay: Evaluation of neurite outgrowth-promoting activity in central neural cells; assay type: cell-based; settings: 48 hours after addition, longest neurite length 60 μm or more, mean±standard error, control 18.0 ± 1.6
Method: The neurite outgrowth-promoting effect of the rat cerebral cortex neural cells on test substances was evaluated using the following method. The cerebral cortex neural cells were isolated from Wistar rats on the 18th day of pregnancy according to the method of Springer Neuroscience Lab Manual. That is, under ether anesthesia, a fetal rat was removed from the uterus of a pregnant rat on day 18, and transferred into a petri dish containing HBSS (manufactured by Gibco, Inc.) on ice. The brain was subdivided into three pieces under a stereoscopic microscope to cut out the cerebral cortex. The cerebral cortex that had been cut out was dispersed with a neural cell dispersion solution (manufactured by Sumitomo Bakelite Co., Ltd.) to prepare rat cerebral cortex cells.
The resulting cerebral cortex cells were subjected to cell culture. Neurobasal medium (manufactured by Gibco, Inc.) supplemented with B27 Supplement (manufactured by Gibco, Inc.; Fin. 2% v/v), L-glutamine (manufactured by IBCO company; Fin. 0.5 mM) and GlutaMax I (manufactured by Gibco, Inc.; Fin. 0.5 mM) was used as the culture medium. The culture conditions were as follows: 5% CO2, 95% air, 100% humidity, and 37° C. The cells were inoculated to polylysine-coated 8-well slides (manufactured by IWAKI company) so as to have about 2×10^4 cells/well.
Compounds (1) to (6) were added as respective test substances (final concentrations: […] and 1.0 μM) to the culture solution at about 3 hours after the cell inoculation, and the culture solution with no additives was used as a control.
At 48 hours after the addition of the compounds, the cells were fixed at room temperature for about 30 minutes using 4% paraformaldehyde (manufactured by Wako Pure Chemical Industries), and incubated with an anti-α-Tublin antibody (Anti-α-Tubulin Alexa Fluor 488 conjugate) recognizing a microtubule protein, at room temperature for one hour. After washing, the nucleus of the whole cell was stained with a nucleic acid-staining agent DAPI. The cells were observed under a fluorescence microscope at a magnification of 20 times. The stained cell image and the nuclear staining image in the same field of vision were imported into a computer as the image. Using an image analysis software (MethaMorph (registered trademark), Molecular Devises), the image imported into the computer, was used to measure the “longest neurite length” that was the length of the longest neurite of individual cell in each field of vision. A cell having a length of the “longest neurite length” of 60 μm or more is defined as a “neurite forming cell” and the neurite forming activity was evaluated by the ratio of the “neurite forming cell” occupied in the number of the cells in the same field of vision. In other words, such evaluation was performed by determining the rate of the neurite forming cells using the following equation:
Rate of neurite forming cells=[Number of neurite forming cells/Number of total cells in the same field of vision]×100
Each numerical value represents mean±standard error.

sigma receptor = molecular target: T1, sigma receptor (Cavia porcellus, UniProt Q60492); assay: Evaluation of affinity to sigma receptors ([3H](+)-pentazocine receptor binding experiment); set-up: species or system guinea pig; settings: membrane preparation from whole brain of guinea pigs, 25° C., 60 minutes, Dixon plot
T1 construct: A membrane preparation as a sigma receptor obtained from the whole brain of guinea pigs; from tissue; host or cells: guinea pig whole brain membrane preparation
T1 sequence (Q60492 whole entry): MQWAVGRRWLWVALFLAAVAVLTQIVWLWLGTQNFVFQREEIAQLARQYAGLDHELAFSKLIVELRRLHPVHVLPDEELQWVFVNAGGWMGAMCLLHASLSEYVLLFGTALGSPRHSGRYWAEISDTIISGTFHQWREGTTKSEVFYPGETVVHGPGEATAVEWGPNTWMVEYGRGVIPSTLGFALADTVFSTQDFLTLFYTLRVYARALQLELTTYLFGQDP
Method: A membrane preparation as a sigma receptor obtained from the whole brain of guinea pigs was used as an assay system; [^3H] (+)-pentazocine was used as a radioactive ligand; (+)-pentazocine was used as a positive substance; and 50 mM Tris hydrochloric acid buffer (pH 7.4) was used as a buffer.
The measurement of the following radioactivity was performed according to a common method after the binding reaction had been carried out at 25° C. for 60 minutes.
The inhibition rate was determined by the equation of “100−binding rate”. The binding rate is represented by the following equation:
The IC50 of the test substance was calculated from a regression equation to the dose-response curve. That is, the ratio y=(B−N)/(B0−N) wherein a value of (B−N) is a specific binding radioactivity in the presence of a test substance, and a value of (B0−N) is a specific binding radioactivity in the absence of a test substance was first subjected to logit conversion and applied to a logit-log model plotted against the common logarithm of the test substance concentration to create a dose-response curve. […] The regression equation to the dose-response curve used is as follows:
wherein Y=logity=ln(y/(1−y), X=log x, and a and b are each a constant, provided that x is a solute concentration of a test substance.
Then, for each concentration of the positive substance, the reaction rate was measured while changing the concentration of the test substance in a range including the IC50 to create the Dixon plot, and the Ki value was calculated from the test substance concentration giving an intersection of these straight lines.

Row | Structure (SMILES) | Neurite outgrowth-promoting activity (rate of neurite forming cells) ([1]; 0.3 μM) [%] | Neurite outgrowth-promoting activity (rate of neurite forming cells) ([1]; 1.0 μM) [%] | pKi (sigma receptor)
1 | c1ccc(CN2CCN(C3CCCCC3)CC2)cc1 [Compound (1), 1-benzyl-4-cyclohexylpiperazine] | 55.2 ± 1.5 | 54.6 ± 1.5 | 8.19
2 | c1ccc(CCN2CCN(C3CCCCC3)CC2)cc1 [Compound (2), 1-(2-phenylethyl)-4-cyclohexylpiperazine] | 55.7 ± 2.4 | 55.1 ± 2.3 | 8.22
3 | c1ccc(CCCN2CCN(C3CCCCC3)CC2)cc1 [Compound (3), 1-(3-phenylpropyl)-4-cyclohexylpiperazine] | 49.6 ± 2.7 | 58.4 ± 2.8 | 8.21
4 | c1ccc(CC2CCN(C3CCCCC3)CC2)cc1 [Compound (4), 1-cyclohexyl-4-benzylpiperidine] | 50.7 ± 2.7 | 51.1 ± 2.9 | 8.15
5 | c1ccc(CCC2CCN(C3CCCCC3)CC2)cc1 [Compound (5), 1-cyclohexyl-4-(2-phenylethyl)piperidine] | 51.2 ± 2.0 | 48.9 ± 1.5 | 8.41
6 | c1ccc(CCCC2CCN(C3CCCCC3)CC2)cc1 [Compound (6), 1-cyclohexyl-4-(3-phenylpropyl)piperidine] | 54.2 ± 1.7 | 46.0 ± 2.4 | 8.68
7 | COc1ccc(CCN2CCN(CCCc3ccccc3)CC2)cc1OC [Reference compound, reference compound] | 44.6 ± 2.2 | 58.4 ± 1.8 | 

— US20110263862A1, “PIPERIDINE DERIVATIVE, PIPERAZINE DERIVATIVE AND AGENT FOR TREATMENT OF DISEASE INVOLVING CENTRAL NERVOUS SYSTEM DISORDERS” (M'S Science Corporation, priority 2008, published 2011)
